Test results as given in patent US4789661A, “De-(acetylglucosaminyl)-di(dehydro)-deoxy teicoplanin derivatives” (Gruppo Lepetit S.p.A., priority 1985, dated 1988).
Values after ≈ are worked out from the molar mass of the structure shown.

Assays:
[1] = test system: S. Simulans L 1142 (methicillin-resistant); experiment: MIC in microtiter against coagulase-negative staphylococci, clinical isolates; format: cell-based; conditions: S. Simulans L 1142, methicillin-resistant clinical isolate, Iso-sensitest broth, approximately 10^4 CFU/ml
Experimental: (§1) In a representative experiment, compound III i.e. (35,52-di-dehydro-34-deoxy-teicoplanin aglycon) was tested against some clinically isolated coagulasenegative staphylococi. The results of the test, in comparison with teicoplanin, are reported below in Table VII, The MIC were determined in microtiter using Iso-sensitest broth (Oxoid Co.) and approximately 10^4 CFU/ml as the inoculum.

[2] = test system: S. epidermidis L 1378; experiment: as above; format: cell-based; conditions: S. epidermidis L 1378 clinical isolate, Iso-sensitest broth, approximately 10^4 CFU/ml
Experimental: as §1

[3] = test system: S. haemoliticus L 1520 (methicillin-resistant); experiment: as above; format: cell-based; conditions: S. haemoliticus L 1520, methicillin-resistant clinical isolate, Iso-sensitest broth, approximately 10^4 CFU/ml
Experimental: as §1

[4] = test system: S. hominis L 1070; experiment: as above; format: cell-based; conditions: S. hominis L 1070 clinical isolate, Iso-sensitest broth, approximately 10^4 CFU/ml
Experimental: as §1

[5] = test system: S. simulans L 785 (methicillin-resistant); experiment: as above; format: cell-based; conditions: S. simulans L 785, methicillin-resistant clinical isolate, Iso-sensitest broth, approximately 10^4 CFU/ml
Experimental: as §1

[6] = test system: S. warneri L 1375; experiment: as above; format: cell-based; conditions: S. warneri L 1375 clinical isolate, Iso-sensitest broth, approximately 10^4 CFU/ml
Experimental: as §1

[7] = test system: E. Coli SKF 12140; experiment: In vitro antimicrobial activity (MIC), standard dilution test; format: cell-based; conditions: inoculum about 10^4 CFU/ml, 18-24 h at 37° C.
Experimental: (§2) Isosensitest broth (Oxoid) and Todd-Hewitt broth (Difco) are used for growing staphylococci and streptococci, respectively. Broth cultures are diluted so that the final inoculum is about 10^4 colony forming units/ml (CFU/ml).

[8] = test system: P. vulgaris ATCC 881; experiment: as above; format: cell-based; conditions: inoculum about 10^4 CFU/ml, 18-24 h at 37° C.
Experimental: as §2

[9] = test system: S. aureus ATCC 6538; experiment: as above; format: cell-based; conditions: inoculum about 10^4 CFU/ml, 18-24 h at 37° C.
Experimental: as §2

[10] = test system: S. aureus TOUR; experiment: as above; format: cell-based; conditions: inoculum about 10^4 CFU/ml, 18-24 h at 37° C.
Experimental: as §2

[11] = test system: S. epidermidis ATCC 12228; experiment: as above; format: cell-based; conditions: inoculum about 10^4 CFU/ml, 18-24 h at 37° C.
Experimental: as §2

[12] = test system: S. faecalis ATCC 7080; experiment: as above; format: cell-based; conditions: inoculum about 10^4 CFU/ml, 18-24 h at 37° C.
Experimental: as §2

[13] = test system: S. pneumoniae UC 41; experiment: as above; format: cell-based; conditions: inoculum about 10^4 CFU/ml, 18-24 h at 37° C.
Experimental: as §2

[14] = test system: S. pyogenes C 203; experiment: as above; format: cell-based; conditions: inoculum about 10^4 CFU/ml, 18-24 h at 37° C.
Experimental: as §2

[15] = Acid-base titration (pKMCS) in 2-methoxyethanol/water 4:1; format: physicochemical; conditions: potentiometric; 2-methoxyethanol (Methyl Cellosolve)/water 4:1 (v/v)
Experimental: Acid-base titration (pKMCS) were carried out in 2-methoxyethanol (Methyl Cellosolve®) water 4:1 (v/v) solution, with 0.01 NaOH after addition of suitable amounts of 0.01N hcl. The equivalent weights (EW) given are corrected for the solvent content and the inorganic residue.

[16] = test system: experimental infection in mice; experiment: Experimental infection in mice (V. Arioli et al.); format: in vivo
Source text: In addition to their antibacterial activity in vitro, the compounds of the invention show also antibacterial activity in in vivo experimetns.

Which MIC [1] does the source give for teicoplanin [reference compound] here?
The MIC was 0.125 µg/mL.

What about the MIC [2] of the same compound?
Its MIC is 0.5 µg/mL.

What about the MIC [3] of the same compound?
Its MIC is 4 µg/mL.

What about the MIC [4] of the same compound?
The MIC was 0.25 µg/mL.

What about the MIC [5] of the same compound?
The MIC was 0.25 µg/mL.

What about the MIC [6] of the same compound?
Its MIC is 2 µg/mL.

Which MIC [7] does the source give for `NC1C(=O)NC2Cc3ccc(c(Cl)c3)Oc3cc4cc(c3O)Oc3ccc(cc3Cl)C=C3NC(=O)C(NC(=O)C4NC(=O)C(NC2=O)c2cc(O)cc(c2)Oc2cc1ccc2O)c1ccc(O)c(c1)-c1c(O)cc(O)cc1C(C(=O)O)NC3=O` (single isomer, unassigned) [Compound IV, (36,37-cis-51,52-trans)-34,35-didehydro-34-deoxy-teicoplanin-aglycon] here?
The MIC was > 128 µg/mL.

And the MIC [8]?
The MIC was 128 µg/mL (≈ 108 µM).

And the MIC [9]?
The MIC was 1 µg/mL (≈ 0.847 µM).

And the MIC [10]?
The MIC was 1 µg/mL (≈ 0.847 µM).

And the MIC [11]?
Its MIC is 0.12 µg/mL (≈ 0.102 µM).

What about the MIC [12] of the same compound?
The MIC was 8 µg/mL (≈ 6.77 µM).

What about the MIC [13] of the same compound?
The MIC was 4 µg/mL (≈ 3.39 µM).

And the MIC [14]?
The MIC was 4 µg/mL (≈ 3.39 µM).

What about the “pKmcs (COOH)” value [15] of the same compound?
The value was 4.8.

What about the “pKmcs (NH2)” value [15] of the same compound?
Its value is 7.1.

Which results are given for `NC1C(=O)NC2Cc3ccc(c(Cl)c3)Oc3cc4cc(c3O)Oc3ccc(cc3Cl)C=C3NC(=O)C(NC(=O)C4NC(=O)C(NC2=O)c2cc(O)cc(c2)Oc2cc1ccc2O)c1ccc(O)c(c1)-c1c(O)cc(O)cc1C(C(=O)O)NC3=O` (single isomer, unassigned) [Compound V, (36,37-trans-51,52-trans)-34,35-didehydro-34-deoxy-teicoplanin-aglycon]?
MIC [7]: > 128 µg/mL; MIC [8]: > 128 µg/mL; MIC [9]: 2 µg/mL (≈ 1.69 µM); MIC [10]: 4 µg/mL (≈ 3.39 µM); MIC [11]: 0.4 µg/mL (≈ 0.339 µM); MIC [12]: 16 µg/mL (≈ 13.5 µM); MIC [13]: 8 µg/mL (≈ 6.77 µM); MIC [14]: 8 µg/mL (≈ 6.77 µM)

For teicoplanin A2 [reference compound], which “pKmcs (COOH)” value [15] is on record?
The value was 5.0.

And the “pKmcs (NH2)” value [15]?
The value was 7.1.

What does the source list for `N[C@H]1C(=O)N[C@@H]2Cc3ccc(c(Cl)c3)Oc3cc4cc(c3O)Oc3ccc(cc3Cl)[C@@H](O)[C@@H]3NC(=O)[C@H](NC(=O)[C@@H]4NC(=O)[C@@H](NC2=O)c2cc(O)cc(c2)Oc2cc1ccc2O)c1ccc(O)c(c1)-c1c(O)cc(O)cc1[C@@H](C(=O)O)NC3=O` [deglucoteicoplanin, reference compound]?
pKmcs (COOH) [15]: 4.9; pKmcs (NH2) [15]: 6.9

With “42-α-D-mannosyl-56-N-acyl-β-D-glucosaminyl-35,52-didehydro-34-d eoxy-teicoplanin aglycon [Compound I]” as the compound, how does the MIC [7] read?
The MIC was > 128 µg/mL.

And the MIC [8]?
Its MIC is > 128 µg/mL.

And the MIC [9]?
The MIC was 0.5 µg/mL.

And the MIC [10]?
The MIC was 0.5 µg/mL.

What about the MIC [11] of the same compound?
Its MIC is 0.25 µg/mL.

What about the MIC [12] of the same compound?
The MIC was 1 µg/mL.

What about the MIC [13] of the same compound?
The MIC was 0.06 µg/mL.

What about the MIC [14] of the same compound?
Its MIC is 0.06 µg/mL.

What about the ED50 [16] of the same compound?
Its ED50 is 0.35 mg/kg.

And the “pKmcs (COOH)” value [15]?
Its value is 5.0.

What about the “pKmcs (NH2)” value [15] of the same compound?
The value was 6.9.

With `NC1C(=O)NC2Cc3ccc(c(Cl)c3)Oc3cc4cc(c3O)Oc3ccc(cc3Cl)CC3=NC(=O)C(NC(=O)C4NC(=O)C(NC2=O)c2cc(O)cc(c2)Oc2cc1ccc2O)c1ccc(O)c(c1)-c1c(O)cc(O)cc1C(C(=O)O)NC3=O` (centres unmarked) [Compound III, 35,52-didehydro-34-deoxy-teicoplanin aglycon] as the compound, how does the MIC [7] read?
The MIC was > 128 µg/mL.

What about the MIC [8] of the same compound?
Its MIC is > 128 µg/mL.

And the MIC [9]?
The MIC was 0.25 µg/mL (≈ 0.212 µM).

And the MIC [10]?
The MIC was 0.25 µg/mL (≈ 0.212 µM).

And the MIC [11]?
The MIC was 0.12 µg/mL (≈ 0.102 µM).

And the MIC [12]?
Its MIC is 1 µg/mL (≈ 0.847 µM).

And the MIC [13]?
The MIC was 1 µg/mL (≈ 0.847 µM).

What about the MIC [14] of the same compound?
Its MIC is 1 µg/mL (≈ 0.847 µM).

And the MIC [1]?
The MIC was 0.125 µg/mL (≈ 0.106 µM).

What about the MIC [2] of the same compound?
The MIC was 0.125 µg/mL (≈ 0.106 µM).

What about the MIC [3] of the same compound?
Its MIC is 0.5 µg/mL (≈ 0.423 µM).

And the MIC [4]?
Its MIC is 0.125 µg/mL (≈ 0.106 µM).

What about the MIC [5] of the same compound?
Its MIC is 0.125 µg/mL (≈ 0.106 µM).

And the MIC [6]?
Its MIC is 1 µg/mL (≈ 0.847 µM).

And the ED50 [16]?
The ED50 was 5 mg/kg.

For `NC1C(=O)NC2Cc3ccc(c(Cl)c3)Oc3cc4cc(c3O)Oc3ccc(cc3Cl)CC3=NC(=O)C(NC(=O)C4NC(=O)C(NC2=O)c2cc(O)cc(c2)Oc2cc1ccc2O)c1ccc(O)c(c1)-c1c(O[C@H]2O[C@H](CO)[C@@H](O)[C@H](O)[C@@H]2O)cc(O)cc1C(C(=O)O)NC3=O` (stereo partly drawn) [Compound II, 42-α-D-mannosyl-35,52-didehydro-34-deoxy-teicoplanin aglycon], which MIC [7] is on record?
The MIC was > 128 µg/mL.

What about the MIC [8] of the same compound?
Its MIC is > 128 µg/mL.

And the MIC [9]?
Its MIC is 0.25 µg/mL (≈ 0.186 µM).

What about the MIC [10] of the same compound?
Its MIC is 0.25 µg/mL (≈ 0.186 µM).

And the MIC [11]?
The MIC was 0.5 µg/mL (≈ 0.372 µM).

And the MIC [12]?
The MIC was 1 µg/mL (≈ 0.745 µM).

What about the MIC [13] of the same compound?
Its MIC is 2 µg/mL (≈ 1.49 µM).

And the MIC [14]?
Its MIC is 2 µg/mL (≈ 1.49 µM).

And the ED50 [16]?
The ED50 was 5.8 mg/kg.

And the “pKmcs (COOH)” value [15]?
Its value is 4.8.

What about the “pKmcs (NH2)” value [15] of the same compound?
Its value is 6.9.
